± gives the standard deviation of the averaged measurements.
Columns and labels:
FORETINIB = compound: COc1cc2c(Oc3ccc(NC(=O)C4(C(=O)Nc5ccc(F)cc5)CC4)cc3F)ccnc2cc1OCCCN1CCOCC1 [FORETINIB]; assay: surviving fraction relative to DMSO-only wells; higher = less growth inhibition; details: exposure time: 5 days
Outline: (§1)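 Viability values are CellTiter-Glo luminescence readings, given as surviving fraction against the median of DMSO-only wells. The readings were taken after 10 minutes at room temperature, following five days of continuous exposure to inhibitors at 0.5, 1, 5, 10, 50, 100, 500 and 1000 nM that began 24 hours after log-phase tumour cell lines were seeded at 250–500 cells per well in 384-well plates. Every line was screened three times and kept only if replicate Pearson r >0.7 and median Z' >0.3.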

DASATINIB = compound: Cc1nc(Nc2ncc(C(=O)Nc3c(C)cccc3Cl)s2)cc(N2CCN(CCO)CC2)n1 [DASATINIB]; assay: as above; details: exposure time: 5 days
Outline: as §1

Test System	surviving fraction (FORETINIB; 0.5 nM)	surviving fraction (FORETINIB; 1 nM)	surviving fraction (FORETINIB; 5 nM)	surviving fraction (FORETINIB; 10 nM)	surviving fraction (FORETINIB; 50 nM)	surviving fraction (FORETINIB; 100 nM)	surviving fraction (FORETINIB; 500 nM)	surviving fraction (FORETINIB; 1000 nM)	surviving fraction (DASATINIB; 0.5 nM)	surviving fraction (DASATINIB; 1 nM)	surviving fraction (DASATINIB; 5 nM)	surviving fraction (DASATINIB; 10 nM)	surviving fraction (DASATINIB; 50 nM)	surviving fraction (DASATINIB; 100 nM)	surviving fraction (DASATINIB; 500 nM)	surviving fraction (DASATINIB; 1000 nM)
SG27 HEADNECK	0.986 ± 0.14	1.12 ± 0.063	1.07 ± 0.11	1.11 ± 0.14	0.962 ± 0.12	1.02 ± 0.075	0.901 ± 0.11	0.829 ± 0.078	0.939 ± 0.12	1.01 ± 0.035	0.889 ± 0.15	0.736 ± 0.013	0.531 ± 0.0053	0.42 ± 0.038	0.35 ± 0.059	0.369 ± 0.064
SG28 HEADNECK	1.04 ± 0.07	1.15 ± 0.12	1.12 ± 0.077	0.972 ± 0.011	1.02 ± 0.054	0.941 ± 0.054	0.826 ± 0.023	0.512 ± 0.046	0.749 ± 0.055	0.772 ± 0.04	0.687 ± 0.028	0.534 ± 0.087	0.439 ± 0.033	0.329 ± 0.018	0.213 ± 0.016	0.204 ± 0.032
SG31 HEADNECK	1.38 ± 0.16	1.41 ± 0.11	1.1 ± 0.18	1.09 ± 0.21	0.969 ± 0.14	1.12 ± 0.11	1.02 ± 0.17	0.898 ± 0.087	0.892 ± 0.091	0.878 ± 0.19	0.722 ± 0.013	0.649 ± 0.081	0.535 ± 0.02	0.44 ± 0.042	0.391 ± 0.045	0.373 ± 0.016
SG32 HEADNECK	1.15 ± 0.13	1.24 ± 0.36	1.27 ± 0.19	1.22 ± 0.041	1.03 ± 0.1	1.17 ± 0.26	0.374 ± 0.011	0.264 ± 0.0095	0.606 ± 0.048	0.653 ± 0.14	0.564 ± 0.11	0.438 ± 0.06	0.395 ± 0.09	0.171 ± 0.037	0.155 ± 0.015	0.147 ± 0.022
SG43 HEADNECK	1.03 ± 0.26	0.918 ± 0.14	0.678 ± 0.063	0.732 ± 0.032	0.727 ± 0.15	0.883 ± 0.12	0.545 ± 0.11	0.247 ± 0.076	0.98 ± 0.19	1.02 ± 0.16	0.592 ± 0.2	0.581 ± 0.2	0.337 ± 0.078	0.273 ± 0.13	0.206 ± 0.023	0.177 ± 0.054
